Reference: PubChem BioAssay AID2060500 (Molecular Pharmacology Branch, DTP, NCI, 2025)

Tested on: 596521-263-R-J1-PDC complex spheroids, viability % of control
Experiment: Anticancer human tumor 596521-263-R-J1-PDC patient-derived soft tissue sarcoma cell line growth inhibition [GQUAD]
Details: for IC50: curve of first compound; for viability, T/C: stronger effect = lower value
Procedure, shortened: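 Multi-cell-type spheroids of tumor cells with HUVEC and mesenchymal stem cells, treated with drug combinations. Concentrations descend in half-log steps from near clinical Cmax, or from 10 microM where Cmax is unknown; viability read-out.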

[1] = second compound 0.0316 µM, first compound 0.0316 µM
[2] = second compound 0.0316 µM, first compound 0.1 µM
[3] = second compound 0.0316 µM, first compound 0.316 µM
[4] = second compound 0.0316 µM, first compound 1 µM
[5] = second compound 0.0316 µM, first compound 3.16 µM
[6] = second compound 0.0316 µM, first compound 10 µM
[7] = second compound 0.1 µM, first compound 0.0316 µM
[8] = second compound 0.1 µM, first compound 0.1 µM
[9] = second compound 0.1 µM, first compound 0.316 µM
[10] = second compound 0.1 µM, first compound 1 µM
[11] = second compound 0.1 µM, first compound 3.16 µM
[12] = second compound 0.1 µM, first compound 10 µM
[13] = second compound 0.316 µM, first compound 0.0316 µM
[14] = second compound 0.316 µM, first compound 0.1 µM
[15] = second compound 0.316 µM, first compound 0.316 µM
[16] = second compound 0.316 µM, first compound 1 µM
[17] = second compound 0.316 µM, first compound 3.16 µM
[18] = second compound 0.316 µM, first compound 10 µM
[19] = second compound 1 µM, first compound 0.0316 µM
[20] = second compound 1 µM, first compound 0.1 µM
[21] = second compound 1 µM, first compound 0.316 µM
[22] = second compound 1 µM, first compound 1 µM
[23] = second compound 1 µM, first compound 3.16 µM
[24] = second compound 1 µM, first compound 10 µM
[25] = second compound 3.16 µM, first compound 0.0316 µM
[26] = second compound 3.16 µM, first compound 0.1 µM
[27] = second compound 3.16 µM, first compound 0.316 µM
[28] = second compound 3.16 µM, first compound 1 µM
[29] = second compound 3.16 µM, first compound 3.16 µM
[30] = second compound 3.16 µM, first compound 10 µM
[31] = second compound 10 µM, first compound 0.0316 µM
[32] = second compound 10 µM, first compound 0.1 µM
[33] = second compound 10 µM, first compound 0.316 µM
[34] = second compound 10 µM, first compound 1 µM
[35] = second compound 10 µM, first compound 3.16 µM
[36] = second compound 10 µM, first compound 10 µM
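Also: spheroids exposed to drugs for 7 days before viability reading.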
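For viability, T/C in this document: 100% = DMSO vehicle control viability.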

Structure (SMILES): C#Cc1c(F)ccc2cc(O)cc(-c3ncc4c(N5CC6CCC(C5)N6)nc(OCC56CCCN5CC(F)C6)nc4c3F)c12 (stereo unspecified) + Cc1[nH]c2ccc(F)cc2c1-c1nc2c3cccnc3c3ncccc3c2[nH]1
- IC50 (second compound 0.0316 µM): 1.28 µM
- IC50 (second compound 0.1 µM): 1.39 µM
- IC50 (second compound 0.316 µM): 1.38 µM
- IC50 (second compound 1 µM): 1.35 µM
- IC50 (second compound 3.16 µM): 1.71 µM
- IC50 (second compound 10 µM): 1.49 µM
- viability, T/C [1]: 111%
- viability, T/C [2]: 94.7%
- viability, T/C [3]: 89.1%
- viability, T/C [4]: 60.9%
- viability, T/C [5]: 17.9%
- viability, T/C [6]: 18.9%
- viability, T/C [7]: 104%
- viability, T/C [8]: 93.3%
- viability, T/C [9]: 97.4%
- viability, T/C [10]: 62.1%
- viability, T/C [11]: 17.5%
- viability, T/C [12]: 22.7%
- viability, T/C [13]: 113%
- viability, T/C [14]: 95.6%
- viability, T/C [15]: 97.3%
- viability, T/C [16]: 62.5%
- viability, T/C [17]: 16.1%
- viability, T/C [18]: 21.2%
- viability, T/C [19]: 88%
- viability, T/C [20]: 87.7%
- viability, T/C [21]: 92.9%
- viability, T/C [22]: 59.9%
- viability, T/C [23]: 21.1%
- viability, T/C [24]: 22.5%
- viability, T/C [25]: 83.8%
- viability, T/C [26]: 95.1%
- viability, T/C [27]: 80.7%
- viability, T/C [28]: 65.9%
- viability, T/C [29]: 31.6%
- viability, T/C [30]: 29%
- viability, T/C [31]: 78.3%
- viability, T/C [32]: 78%
- viability, T/C [33]: 81%
- viability, T/C [34]: 60.8%
- viability, T/C [35]: 29.1%
- viability, T/C [36]: 30%

Structure (SMILES): CC(=O)O[C@H]1C(=O)[C@@]2(C)[C@H]([C@H](OC(=O)c3ccccc3)[C@]3(O)C[C@H](OC(=O)[C@H](O)[C@@H](NC(=O)c4ccccc4)c4ccccc4)C(C)=C1C3(C)C)[C@]1(OC(C)=O)CO[C@@H]1C[C@@H]2O + Cc1[nH]c2ccc(F)cc2c1-c1nc2c3cccnc3c3ncccc3c2[nH]1
- IC50 (second compound 0.0316 µM): 0.122 µM
- IC50 (second compound 0.1 µM): 0.144 µM
- IC50 (second compound 0.316 µM): 0.173 µM
- IC50 (second compound 1 µM): 0.212 µM
- IC50 (second compound 3.16 µM): 0.204 µM
- IC50 (second compound 10 µM): 0.226 µM
- viability, T/C [1]: 90.8%
- viability, T/C [2]: 55.8%
- viability, T/C [3]: 20.6%
- viability, T/C [4]: 0.81%
- viability, T/C [5]: 0.38%
- viability, T/C [6]: 0.28%
- viability, T/C [7]: 96.1%
- viability, T/C [8]: 60.2%
- viability, T/C [9]: 28.2%
- viability, T/C [10]: 0.74%
- viability, T/C [11]: 0.23%
- viability, T/C [12]: 0.22%
- viability, T/C [13]: 107%
- viability, T/C [14]: 69.1%
- viability, T/C [15]: 30.8%
- viability, T/C [16]: 1.26%
- viability, T/C [17]: 0.2%
- viability, T/C [18]: 1.66%
- viability, T/C [19]: 89.1%
- viability, T/C [20]: 74.9%
- viability, T/C [21]: 37.5%
- viability, T/C [22]: 1.83%
- viability, T/C [23]: 0.31%
- viability, T/C [24]: 0.28%
- viability, T/C [25]: 85.4%
- viability, T/C [26]: 69%
- viability, T/C [27]: 39.2%
- viability, T/C [28]: 1.48%
- viability, T/C [29]: 0.34%
- viability, T/C [30]: 1.18%
- viability, T/C [31]: 71.3%
- viability, T/C [32]: 65.2%
- viability, T/C [33]: 42.9%
- viability, T/C [34]: 1.48%
- viability, T/C [35]: 0.49%
- viability, T/C [36]: 0.31%

Structure (SMILES): CCCS(=O)(=O)Nc1ccc(F)c(C(=O)c2c[nH]c3ncc(-c4ccc(Cl)cc4)cc23)c1F + Cc1[nH]c2ccc(F)cc2c1-c1nc2c3cccnc3c3ncccc3c2[nH]1
- IC50 (second compound 0.0316 µM): 0.504 µM
- IC50 (second compound 0.1 µM): 0.358 µM
- IC50 (second compound 0.316 µM): 0.836 µM
- IC50 (second compound 1 µM): 0.498 µM
- IC50 (second compound 3.16 µM): 0.376 µM
- IC50 (second compound 10 µM): 0.419 µM
- viability, T/C [1]: 107%
- viability, T/C [2]: 73.5%
- viability, T/C [3]: 56.2%
- viability, T/C [4]: 41.7%
- viability, T/C [5]: 40.5%
- viability, T/C [6]: 40.2%
- viability, T/C [7]: 89.3%
- viability, T/C [8]: 74.2%
- viability, T/C [9]: 51.8%
- viability, T/C [10]: 36.8%
- viability, T/C [11]: 42.8%
- viability, T/C [12]: 31.1%
- viability, T/C [13]: 112%
- viability, T/C [14]: 81.4%
- viability, T/C [15]: 61.1%
- viability, T/C [16]: 44.4%
- viability, T/C [17]: 46.3%
- viability, T/C [18]: 33.1%
- viability, T/C [19]: 84.4%
- viability, T/C [20]: 81.6%
- viability, T/C [21]: 57.2%
- viability, T/C [22]: 38.4%
- viability, T/C [23]: 44.4%
- viability, T/C [24]: 29.7%
- viability, T/C [25]: 92.6%
- viability, T/C [26]: 70.4%
- viability, T/C [27]: 53.2%
- viability, T/C [28]: 37.6%
- viability, T/C [29]: 37.9%
- viability, T/C [30]: 32%
- viability, T/C [31]: 74.6%
- viability, T/C [32]: 58.5%
- viability, T/C [33]: 58%
- viability, T/C [34]: 38.1%
- viability, T/C [35]: 39.3%
- viability, T/C [36]: 30.4%
